We go through 4 compounds from ChEMBL document CHEMBL2413062, “Effect of single pyrrole replacement with β-alanine on DNA binding affinity and sequence specificity of hairpin pyrrole/imidazole polyamides targeting 5'-GCGC-3'” (Bioorg Med Chem, 2013).

Experiment [1] in a line: Binding affinity to hair pin DNA ODN4 5'-XGCCATGACGGCTTTTGCCGTACTGGC-3' (unknown origin) by surface plasmon resonance analysis.
Experiment [2] in a line: Binding affinity to hair pin DNA ODN1 5'-XGCCAGCGCGGCTTTTGCCGCGCTGGC-3' (unknown origin) by surface plasmon resonance analysis.
Experiment [3] in a line: Binding affinity to hair pin DNA ODN2 5'-XGCCAGTGCGGCTTTTGCCGCACTGGC-3' (unknown origin) by surface plasmon resonance analysis.
Experiment [4] is described as follows: Binding affinity to hair pin DNA ODN3 5'-XGCCAGCACGGCTTTTGCCGTGCTGGC-3' (unknown origin) by surface plasmon resonance analysis.
Experiment [5] in a line: Selectivity ratio of Kd for mismatched hair pin DNA ODN4 5'-XGCCATGACGGCTTTTGCCGTACTGGC-3' (unknown origin) to Kd for hair pin DNA ODN1 5'-XGCCAGCGCGGCTTTTGCCGCGCTGGC-3' (unknown origin).
Experiment [6] can be described thus: Selectivity ratio of Kd for mismatched hair pin DNA ODN3 5'-XGCCAGCACGGCTTTTGCCGTGCTGGC-3' (unknown origin) to Kd for hair pin DNA ODN1 5'-XGCCAGCGCGGCTTTTGCCGCGCTGGC-3' (unknown origin).
The nature of experiment [7]: Selectivity ratio of Kd for mismatched hair pin DNA ODN2 5'-XGCCAGTGCGGCTTTTGCCGCACTGGC-3' (unknown origin) to Kd for hair pin DNA ODN1 5'-XGCCAGCGCGGCTTTTGCCGCGCTGGC-3' (unknown origin).

Consider `CN(C)CCCNC(=O)CCNC(=O)c1cc(NC(=O)c2nc(NC(=O)c3cc(NC(=O)c4nc(NC(=O)CCCNC(=O)c5cc(NC(=O)c6nc(NC(=O)CCNC(=O)c7nc(NC(=O)CCNC(=O)CCN)cn7C)cn6C)cn5C)cn4C)cn3C)cn2C)cn1C`, for which the Kd in experiment [1] is 47 nM; in experiment [2] it was 0.44 nM; in experiment [3], 89 nM; in experiment [4], 11 nM.
In the case of `CN(C)CCCNC(=O)CCNC(=O)c1cc(NC(=O)c2nc(NC(=O)CCNC(=O)c3nc(NC(=O)CCCNC(=O)c4cc(NC(=O)c5nc(NC(=O)c6cc(NC(=O)c7nc(NC(=O)CCNC(=O)CCN)cn7C)cn6C)cn5C)cn4C)cn3C)cn2C)cn1C`, the Ratio was 270 in experiment [5], 120 in experiment [6] and 16 in experiment [7]. The dissociation constant Kd was 190 nM in experiment [1], 0.7 nM in experiment [2], 11 nM in experiment [3] and 83 nM in experiment [4].
Consider `CN(C)CCCNC(=O)CCNC(=O)c1cc(NC(=O)c2nc(NC(=O)c3cc(NC(=O)c4nc(NC(=O)CCCNC(=O)c5cc(NC(=O)c6nc(NC(=O)c7cc(NC(=O)c8nc(NC(=O)CCNC(=O)CCN)cn8C)cn7C)cn6C)cn5C)cn4C)cn3C)cn2C)cn1C`, for which the Ratio in experiment [5] amounted to 300; in experiment [6], 230; in experiment [7], 250. The Kd worked out at 82000 nM in experiment [1], 270 nM in experiment [2], 68000 nM in experiment [3] and 63000 nM in experiment [4].
As for `CN(C)CCCNC(=O)CCNC(=O)c1cc(NC(=O)c2nc(NC(=O)CCNC(=O)c3nc(NC(=O)CCCNC(=O)c4cc(NC(=O)c5nc(NC(=O)CCNC(=O)c6nc(NC(=O)CCNC(=O)CCN)cn6C)cn5C)cn4C)cn3C)cn2C)cn1C`, the values for the Ratio in experiment [5], in experiment [6] and in experiment [7] were 29, 17 and 17, respectively. In addition, the dissociation constant Kd in experiment [1] is 18 nM; in experiment [2], 0.63 nM; in experiment [3] it was 11 nM; in experiment [4], 11 nM.
